Test system: amyloid-beta in CD31-positive vessels
Assay: Assessment of CAA in APP23 mice by CD31/NT12 double fluorescence immunohistochemistry and image analysis
Type: in vivo, mouse
Method: Amyloid plaques were stained using a rabbit anti-Aβ primary antibody (NT12) which recognizes the C-terminal part of the amyloid peptide (the antibody was raised as described in Schrader-Fischer G and Paganetti P A, 1996, and Schrader-Fischer G et al., 1997). The vascular endothelial cells were detected using a rat anti-CD31 antibody (reference DIA310) from Dianova GmbH (Hamburg, Germany). All stainings were performed using the fully automated instrument Ventana Discovery® Ultra (Roche Diagnostics Schweiz AG, Rotkreuz, Switzerland). All chemicals were provided by Roche Diagnostic.
All study animals were used and brain tissue sections of 3 micrometers were freshly cut and collected on SuperFrost+ slides. The tissues sections were de-paraffinized and rehydrated under solvent-free conditions (EZprep solution) followed by antigen retrieval (demasking) performed by heat retrieval cycles for 32 min in a EDTA based buffer (CC1 solution). Subsequently, slides were blocked for 4 min using the DISCOVERY Inhibitor (reference 07017944001 (Roche)). The primary antibody diluted at 1/10′000 in antibody diluent was manually added on tissue sections and incubated for 1 h at room temperature. A short post-fixation (glutaraldehyde at 0.05%) was performed before applying the multimer UltraMap-anti Rabbit HRP ready to use antibody (reference 05269717001) for 16 min.
Detection was performed using the DISCOVERY FITC® following the manufacturer's recommendations. Slides were then heat denaturated at 92° C. for 20 min before a manual application of the second primary antibody (rat anti-CD31 diluted at 1/1′000 in antibody diluent) and incubated for 1 h. Multimer UltraMap-anti-Rat HRP antibody (reference 05891884001) was used for 20 min to detect CD31 in combination with the DISCOVERY Rhodamine kit (reference 07259883001).
The slides were washed and mounted using Prolong® Gold antifade reagent (reference P36931, ThermoFisher, Switzerland) and further scanned with the Hamamatsu slide scanner instrument (NanoZoomer 2.0 HT, scanning software NDP-Scan Vers. 2.5, Hamamatsu Photonics France, Swiss Office, Solothurn, Switzerland) at the 40× objective. The scanning settings were as follows: the exposure time with the DAPI filter was set at 28.5 ms as well as for the FITC filter and TRITC filter (detection of Rhodamine).
For the quantitative plaque and vessel-associated amyloid-beta evaluation based on image analysis, a proprietary image analysis platform (ASTORIA, Automated Stored Image Analysis) was developed based on MS Visual Studio 2010 and many functions from Matrox MIL V9 libraries (Matrox Inc, Quebec, Canada).
For the beta-amyloid plaque and vessel analysis, the following sequence of steps was performed: • Slides were scanned with Hamamatsu Nanozoomer at 40× magnification. […]

[1] = 0.03 g/kg food, 6 months, all CD31+ vessels
[2] = 0.03 g/kg food, 6 months, large CD31-positive vessels
[3] = 0.03 g/kg vs vehicle, all CD31+ vessels
[4] = 0.03 g/kg vs vehicle, large vessels
[5] = 0.03 g/kg vs vehicle, small + medium vessels

In the case of `C[C@@]1(c2nc(NC(=O)c3ncc(C(F)(F)F)cc3Cl)ccc2F)CO[C@@](C)(C(F)(F)F)C(N)=N1` [Compound 1, N-(6-((3R,6R)-5-amino-3,6-dimethyl-6-(trifluoromethyl)-3,6-dihydro-2H-1,4-oxazin-3-yl)-5-fluoropyridin-2-yl)-3-chloro-5-(trifluoromethyl)picolinamide], the “% of large vessels with 0% Aβ” value (0.03 g/kg food, 6 months) is reported as 9.14 ± 9.14%, the “% of large vessels with 1-10% Aβ” value (0.03 g/kg food, 6 months) is reported as 17.4 ± 1.63% and the “% of large vessels with 10-25% Aβ” value (0.03 g/kg food, 6 months) is reported as 11.2 ± 1.68%. For the same molecule, the “% of large vessels with 25-50% Aβ” value (0.03 g/kg food, 6 months) was 17.5 ± 2.63%, the “% of large vessels with 50-75% Aβ” value (0.03 g/kg food, 6 months) was 27.7 ± 1.97% and the “% of large vessels with >10% Aβ” value (0.03 g/kg food, 6 months) was 73.5 ± 3.4%. The “% of large vessels with >75% Aβ” value (0.03 g/kg food, 6 months) was 17.0 ± 2.92%, the “% of small + medium vessels with 0% Aβ” value (0.03 g/kg food, 6 months) was 63.7 ± 2.83% and the “% of small + medium vessels with 1-10% Aβ” value (0.03 g/kg food, 6 months) was 22.3 ± 2.65%. For the same molecule, the “% of small + medium vessels with 10-25% Aβ” value (0.03 g/kg food, 6 months) was 4.86 ± 0.48%, the “% of small + medium vessels with 25-50% Aβ” value (0.03 g/kg food, 6 months) was 3.55 ± 0.35% and the “% of small + medium vessels with 50-75% Aβ” value (0.03 g/kg food, 6 months) was 2.5 ± 0.31%. The “% of small + medium vessels with >10% Aβ” value (0.03 g/kg food, 6 months) was 14.0 ± 1.01%, the “% of small + medium vessels with >75% Aβ” value (0.03 g/kg food, 6 months) was 3.11 ± 0.44% and the “CAA Frequency (number small + medium vessels with >10% Aβ normalized to sample area, *10^7)” value (0.03 g/kg food, 6 months) was 91 ± 5.9. The “Number of large CD31+ vessels (normalized to total CD31 positive vessel numbers in %)” value (0.03 g/kg food, 6 months) was 1.89 ± 0.17%, the “Number of small + medium CD31+ vessels (normalized to total CD31 positive small + medium vessel numbers in %)” value (0.03 g/kg food, 6 months) was 98.1 ± 0.17% and the “Number small + medium vessels with >10% Aβ, mean ± SEM” value (0.03 g/kg food, 6 months) was 288 ± 21.9. For the same molecule, the “Total number CD31+ vessels (normalized to total sample area, *10^5), mean ± SEM” value (0.03 g/kg food, 6 months) was 6.52 ± 0.4, the “Total vessel-associated NT12 area (normalized to total small + medium CD31+ vessel area)” value (0.03 g/kg food, 6 months) was 0.286 ± 0.0313 and the “% of vessels with 0% Aβ” value [1] was 60.3 ± 3.49%. The “% of vessels with 1-10% Aβ” value [1] was 23.2 ± 2.6%, the “% of vessels with 10-25% Aβ” value [1] was 5.65 ± 0.8% and the “% of vessels with 25-50% Aβ” value [1] was 4.06 ± 0.44%. The “% of vessels with 50-75% Aβ” value [1] was 3.13 ± 0.35%, the “% of vessels with >10% Aβ” value [1] was 16.5 ± 0.76% and the “% of vessels with >75% Aβ” value [1] was 3.7 ± 0.55%. For the same molecule, the “CAA Frequency (number vessels with >10% Aβ normalized to sample area, *10^7)” value [1] was 94 ± 6.5, the “Number vessels with >10% Aβ, mean ± SEM” value [1] was 319 ± 22.2 and the “Total vessel-associated NT12 area (normalized to total CD31+ area)” value [1] was 0.65 ± 0.07. The “CAA Frequency (number vessels with >10% Aβ normalized to sample area, *10^7)” value [2] was 9.3 ± 1.0, the “Number vessels with >10% Aβ, mean ± SEM” value [2] was 29 ± 3.0 and the “Total vessel-associated NT12 area (normalized to total CD31+ area)” value [2] was 0.79 ± 0.05. The “% of large vessels with 0% Aβ, treatment effect vs vehicle” value (0.03 g/kg vs vehicle) was −18%, the “% of large vessels with 1-10% Aβ, treatment effect vs vehicle” value (0.03 g/kg vs vehicle) was “+19%” and the “% of large vessels with 10-25% Aβ, treatment effect vs vehicle” value (0.03 g/kg vs vehicle) was “+60%”. The “% of large vessels with 25-50% Aβ, treatment effect vs vehicle” value (0.03 g/kg vs vehicle) was −9%, the “% of large vessels with 50-75% Aβ, treatment effect vs vehicle” value (0.03 g/kg vs vehicle) was −15% and the “% of large vessels with >10% Aβ, treatment effect vs vehicle” value (0.03 g/kg vs vehicle) was −1%. For the same molecule, the “% of large vessels with >75% Aβ, treatment effect vs vehicle” value (0.03 g/kg vs vehicle) was “+12%”, the “% of small + medium vessels with 0% Aβ, treatment effect vs vehicle” value (0.03 g/kg vs vehicle) was −13% and the “% of small + medium vessels with 1-10% Aβ, treatment effect vs vehicle” value (0.03 g/kg vs vehicle) was “+76%”. For the same molecule, the “% of small + medium vessels with 10-25% Aβ, treatment effect vs vehicle” value (0.03 g/kg vs vehicle) was “+16%”, the “% of small + medium vessels with 25-50% Aβ, treatment effect vs vehicle” value (0.03 g/kg vs vehicle) was −9% and the “% of small + medium vessels with 50-75% Aβ, treatment effect vs vehicle” value (0.03 g/kg vs vehicle) was −6%. For the same molecule, the “% of small + medium vessels with >10% Aβ, treatment effect vs vehicle” value (0.03 g/kg vs vehicle) was “+1%”, the “% of small + medium vessels with >75% Aβ, treatment effect vs vehicle” value (0.03 g/kg vs vehicle) was 0% and the “Total small + medium vessel-associated NT12 area (normalized to total CD31+ small + medium vessel area), treatment effect vs vehicle” value (0.03 g/kg vs vehicle) was “+6% n.s”. For the same molecule, the “% of vessels with 0% Aβ, treatment effect vs vehicle” value [3] was −17%, the “% of vessels with 1-10% Aβ, treatment effect vs vehicle” value [3] was “+82%” and the “% of vessels with 10-25% Aβ, treatment effect vs vehicle” value [3] was “+34%”. The “% of vessels with 25-50% Aβ, treatment effect vs vehicle” value [3] was −2%, the “% of vessels with 50-75% Aβ, treatment effect vs vehicle” value [3] was 0% and the “% of vessels with >10% Aβ, treatment effect vs vehicle” value [3] was “+12%”. For the same molecule, the “% of vessels with >75% Aβ, treatment effect vs vehicle” value [3] was “+12%”, the “CAA Frequency, treatment effect vs vehicle” value (“CAA Frequency … vs vehicle” below) [3] was −4% n.s and the “Number vessels with >10% Aβ, treatment effect vs vehicle” value [3] was −10% n.s. For the same molecule, the “Total vessel-associated NT12 area (normalized to total CD31+ area), treatment effect vs vehicle” value [3] was “+14% n.s”, the “CAA Frequency … vs vehicle” value [4] was “+20% n.s” and the “Number vessels with >10% Aβ, treatment effect vs vehicle” value [4] was “+4% n.s”. For the same molecule, the “Total vessel-associated NT12 area (normalized to total CD31+ area), treatment effect vs vehicle” value [4] was −1% n.s, the “CAA Frequency … vs vehicle” value [5] was “+2% n.s” and the “Number vessels with >10% Aβ, treatment effect vs vehicle” value [5] was −12% n.s.

From patent publication US10722518B2, “Oxazine derivative for use in the treatment or prevention of cerebral amyloid angiopathy” (Novartis AG, priority 2016, dated 2020)
